# Legend:
# Type in all cases: biochemical
# cathepsin B = target: T1, cathepsin B (Homo sapiens, UniProt P07858); test: Cathepsin B enzyme inhibition in vitro (kinetic fluorescence assay); conditions: Ki(cathepsin B)/Ki(calpain) ratio
# T1 construct: cathepsin B—isolated from human liver; purchased Calbiochem 219362; host or cells: human liver (tissue isolate)
# In short: (§1)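 Kinetic fluorescence (ex 390/em 460 nm), room temperature: calpain-I (human erythrocyte, 20 nM) with 100 µM Suc-Leu-Tyr-AMC, imidazole/CaCl2 pH 7.3; cathepsin B (liver, 0.25 nM), 100 µM Z-Phe-Arg-AMC; L (liver, 1 nM), 2 µM Z-Phe-Arg-AMC; S (recombinant, 0.5 nM), 20 µM Z-Val-Val-Arg-AMC; cathepsins in MES/EDTA/cysteine pH 6.0. Apparent Ki via Cheng-Prusoff, 2–4 curves averaged.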
# cathepsin K = target: T2, cathepsin K (Homo sapiens, UniProt P43235); test: Cathepsin K enzyme inhibition in vitro (kinetic fluorescence assay); conditions: Ki(cathepsin K)/Ki(calpain) ratio
# T2 construct: purchased Calbiochem 342001; host or cells: E. coli
# T2 sequence (P43235 115-329): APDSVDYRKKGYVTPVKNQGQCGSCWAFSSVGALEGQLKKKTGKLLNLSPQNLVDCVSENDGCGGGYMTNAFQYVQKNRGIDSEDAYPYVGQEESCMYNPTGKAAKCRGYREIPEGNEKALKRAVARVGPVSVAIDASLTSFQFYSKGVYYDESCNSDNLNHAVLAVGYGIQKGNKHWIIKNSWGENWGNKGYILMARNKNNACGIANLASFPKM
# cathepsin L = target: T3, cathepsin L (Homo sapiens, UniProt P07711); test: Cathepsin L enzyme inhibition in vitro (kinetic fluorescence assay); conditions: Ki(cathepsin L)/Ki(calpain) ratio
# T3 construct: cathepsin L—isolated from human liver; purchased Calbiochem 219402; host or cells: human liver (tissue isolate)
# In short: as §1
# cathepsin S = target: T4, cathepsin S (Homo sapiens, UniProt P25774); test: Cathepsin S enzyme inhibition in vitro (kinetic fluorescence assay); conditions: Ki(cathepsin S)/Ki(calpain) ratio
# T4 construct: purchased Calbiochem 219343; host or cells: E. coli
# In short: as §1
# T4 sequence (P25774 115-331): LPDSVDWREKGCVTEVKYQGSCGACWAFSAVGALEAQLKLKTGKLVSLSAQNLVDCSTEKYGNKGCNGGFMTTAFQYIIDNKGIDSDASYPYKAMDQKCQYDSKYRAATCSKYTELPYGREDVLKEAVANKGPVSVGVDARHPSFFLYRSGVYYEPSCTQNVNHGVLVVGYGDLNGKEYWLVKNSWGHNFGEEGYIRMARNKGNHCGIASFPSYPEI
# T3 sequence (P07711 114-333): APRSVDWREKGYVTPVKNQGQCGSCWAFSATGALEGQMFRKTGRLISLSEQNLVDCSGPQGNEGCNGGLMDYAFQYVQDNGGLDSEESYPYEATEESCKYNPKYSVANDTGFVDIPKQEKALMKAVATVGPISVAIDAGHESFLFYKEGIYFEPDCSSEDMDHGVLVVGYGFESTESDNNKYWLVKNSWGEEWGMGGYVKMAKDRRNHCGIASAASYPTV
Compound,Sel cat. B (cathepsin B),Sel cat. K (cathepsin K),Sel cat. L (cathepsin L),Sel cat. S (cathepsin S)
"NC(=O)C(=O)C(Cc1ccccc1)NC(=O)c1cccnc1-n1ccc(-c2cccc(Cl)c2Cl)n1 (stereo not drawn) [Example 115, N-[3-Amino-2,3-dioxo-1-(phenylmethyl)propyl]-2-[3-(2,3-dichlorophenyl)-1H-pyrazol-1-yl]pyridine-3-carboxamide]",++ (++ means a Ki(cathepsin B)/Ki(calpain) ratio of ≧30),++ (++ means a Ki(cathepsin K)/Ki(calpain) ratio of ≧30),++ (++ means a Ki(cathepsin L)/Ki(calpain) ratio of ≧50),++ (++ means a Ki(cathepsin S)/Ki(calpain) ratio of ≧100)
"COc1ccc(CC(NC(=O)c2cccnc2-n2ccc(-c3cccc4ccccc34)n2)C(=O)C(N)=O)cc1 (stereo not drawn) [Example 135, N-(3-Amino-1-{[4-(methyloxy)phenyl]methyl}-2,3-dioxopropyl)-2-(3-naphthalen-1-yl-1H-pyrazol-1-yl)pyridine-3-carboxamide]",++ (++ means a Ki(cathepsin B)/Ki(calpain) ratio of ≧30),++ (++ means a Ki(cathepsin K)/Ki(calpain) ratio of ≧30),++ (++ means a Ki(cathepsin L)/Ki(calpain) ratio of ≧50),++ (++ means a Ki(cathepsin S)/Ki(calpain) ratio of ≧100)
"COc1ccc(Cl)cc1-c1ccn(-c2ncccc2C(=O)NC(Cc2ccccc2)C(=O)C(N)=O)n1 (stereo not drawn) [Example 131, N-[3-Amino-2,3-dioxo-1-(phenylmethyl)propyl]-2-{3-[5-chloro-2-(methyloxy)phenyl]-1H-pyrazol-1-yl}pyridine-3-carboxamide]",++ (++ means a Ki(cathepsin B)/Ki(calpain) ratio of ≧30),++ (++ means a Ki(cathepsin K)/Ki(calpain) ratio of ≧30),++ (++ means a Ki(cathepsin L)/Ki(calpain) ratio of ≧50),++ (++ means a Ki(cathepsin S)/Ki(calpain) ratio of ≧100)
"NC(=O)C(=O)C(Cc1ccc(F)cc1)NC(=O)c1cccnc1-n1ccc(-c2ccccc2OC(F)(F)F)n1 (stereo not drawn) [Example 152, N-{3-Amino-1-[(4-fluorophenyl)methyl]-2,3-dioxopropyl}-2-(3-{2-[(trifluoromethyl)oxy]phenyl}-1H-pyrazol-1-yl)pyridine-3-carboxamide]",++ (++ means a Ki(cathepsin B)/Ki(calpain) ratio of ≧30),++ (++ means a Ki(cathepsin K)/Ki(calpain) ratio of ≧30),++ (++ means a Ki(cathepsin L)/Ki(calpain) ratio of ≧50),++ (++ means a Ki(cathepsin S)/Ki(calpain) ratio of ≧100)
"COc1ccc(CC(NC(=O)c2cccnc2-n2ccc(-c3ccccc3F)n2)C(=O)C(N)=O)cc1 (stereo not drawn) [Example 92, N-(3-Amino-1-{[4-(methyloxy)phenyl]methyl}-2,3-dioxopropyl)-2-[3-(2-fluorophenyl)-1H-pyrazol-1-yl]pyridine-3-carboxamide]",++ (++ means a Ki(cathepsin B)/Ki(calpain) ratio of ≧30),+ (+ means 10≦Ki(cathepsin K)/Ki(calpain)<30),++ (++ means a Ki(cathepsin L)/Ki(calpain) ratio of ≧50),++ (++ means a Ki(cathepsin S)/Ki(calpain) ratio of ≧100)
"NC(=O)C(=O)C(Cc1ccc(F)cc1)NC(=O)c1cccnc1-n1ccc(-c2ccc(Cl)cc2Cl)n1 (stereo not drawn) [Example 114, N-{-3-Amino-1-[(4-fluorophenyl)methyl]-2,3-dioxopropyl}-2-[3-(2,4-dichlorophenyl)-1H-pyrazol-1-yl]pyridine-3-carboxamide]",++ (++ means a Ki(cathepsin B)/Ki(calpain) ratio of ≧30),++ (++ means a Ki(cathepsin K)/Ki(calpain) ratio of ≧30),++ (++ means a Ki(cathepsin L)/Ki(calpain) ratio of ≧50),++ (++ means a Ki(cathepsin S)/Ki(calpain) ratio of ≧100)
"NC(=O)C(=O)C(Cc1ccccc1)NC(=O)c1cccnc1-n1ccc(-c2ccccc2C(F)(F)F)n1 (stereo not drawn) [Example 72, N-(3-Amino-1-benzyl-2,3-dioxopropyl)-2-{3-[2-(trifluoromethyl)phenyl]-1H-pyrazol-1-yl}nicotinamide]",+ (+ means 10≦Ki(cathepsin B)/Ki(calpain)<30),+ (+ means 10≦Ki(cathepsin K)/Ki(calpain)<30),+ (+ means 30≦Ki(cathepsin L)/Ki(calpain)<50),++ (++ means a Ki(cathepsin S)/Ki(calpain) ratio of ≧100)
"NC(=O)C(=O)C(Cc1ccccc1)NC(=O)c1cccnc1-n1ccc(-c2ccccc2OC(F)(F)F)n1 (stereo not drawn) [Example 124, N-[3-Amino-2,3-dioxo-1-(phenylmethyl)propyl]-2-(3-{2-[(trifluoromethyl)oxy]phenyl}-1H-pyrazol-1-yl)pyridine-3-carboxamide]",++ (++ means a Ki(cathepsin B)/Ki(calpain) ratio of ≧30),++ (++ means a Ki(cathepsin K)/Ki(calpain) ratio of ≧30),++ (++ means a Ki(cathepsin L)/Ki(calpain) ratio of ≧50),++ (++ means a Ki(cathepsin S)/Ki(calpain) ratio of ≧100)
"N-[3-Amino-2,3-dioxo-1-(phenylmethyl)propyl]-2-[3-(3,5-dichlorophenyl)-1H-pyrazol-1-yl]pyridine-3-carboxamide [Example 89]",+ (+ means 10≦Ki(cathepsin B)/Ki(calpain)<30),+ (+ means 10≦Ki(cathepsin K)/Ki(calpain)<30),++ (++ means a Ki(cathepsin L)/Ki(calpain) ratio of ≧50),++ (++ means a Ki(cathepsin S)/Ki(calpain) ratio of ≧100)
"NC(=O)C(=O)C(Cc1ccccc1)NC(=O)c1cccnc1-n1ccc(-c2c(Cl)cccc2Cl)n1 (stereo not drawn) [Example 95, N-[3-Amino-2,3-dioxo-1-(phenylmethyl)propyl]-2-[3-(2,6-dichlorophenyl)-1H-pyrazol-1-yl]pyridine-3-carboxamide]",++ (++ means a Ki(cathepsin B)/Ki(calpain) ratio of ≧30),++ (++ means a Ki(cathepsin K)/Ki(calpain) ratio of ≧30),++ (++ means a Ki(cathepsin L)/Ki(calpain) ratio of ≧50),++ (++ means a Ki(cathepsin S)/Ki(calpain) ratio of ≧100)
"NC(=O)C(=O)C(Cc1ccccc1)NC(=O)c1cccnc1-n1ccc(-c2ccc(F)cc2)n1 (stereo not drawn) [Example 38, N-(3-Amino-1-benzyl-2,3-dioxopropyl)-2-[3-(4-fluorophenyl)-1H-pyrazol-1-yl]nicotinamide]",+ (+ means 10≦Ki(cathepsin B)/Ki(calpain)<30),+ (+ means 10≦Ki(cathepsin K)/Ki(calpain)<30),++ (++ means a Ki(cathepsin L)/Ki(calpain) ratio of ≧50),++ (++ means a Ki(cathepsin S)/Ki(calpain) ratio of ≧100)
"NC(=O)C(=O)C(Cc1ccc(OCc2ccccc2)cc1)NC(=O)c1cccnc1-n1ccc(-c2ccccc2)n1 (stereo not drawn) [Example 127, N-[3-Amino-2,3-dioxo-1-({4-[(phenylmethyl)oxy]phenyl}methyl)propyl]-2-(3-phenyl-1H-pyrazol-1-yl)pyridine-3-carboxamide]",++ (++ means a Ki(cathepsin B)/Ki(calpain) ratio of ≧30),++ (++ means a Ki(cathepsin K)/Ki(calpain) ratio of ≧30),++ (++ means a Ki(cathepsin L)/Ki(calpain) ratio of ≧50),++ (++ means a Ki(cathepsin S)/Ki(calpain) ratio of ≧100)
"NC(=O)C(=O)C(Cc1ccccc1)NC(=O)c1cccnc1-n1ccc(-c2cccc(OC(F)(F)F)c2)n1 (stereo not drawn) [Example 168, N-[3-Amino-2,3-dioxo-1-(phenylmethyl)propyl]-2-(3-{3-[(trifluoromethyl)oxy]phenyl}-1H-pyrazol-1-yl)pyridine-3-carboxamide]",+ (+ means 10≦Ki(cathepsin B)/Ki(calpain)<30),+ (+ means 10≦Ki(cathepsin K)/Ki(calpain)<30),++ (++ means a Ki(cathepsin L)/Ki(calpain) ratio of ≧50),++ (++ means a Ki(cathepsin S)/Ki(calpain) ratio of ≧100)
"NC(=O)C(=O)C(Cc1ccccc1)NC(=O)c1cccnc1-n1cc2c(n1)-c1cccc(Cl)c1OC2 (stereo not drawn) [Example 175, N-[3-Amino-2,3-dioxo-1-(phenylmethyl)propyl]-2-(6-chlorochromeno[4,3-c]pyrazol-2(4H)-yl)pyridine-3-carboxamide]",++ (++ means a Ki(cathepsin B)/Ki(calpain) ratio of ≧30),++ (++ means a Ki(cathepsin K)/Ki(calpain) ratio of ≧30),++ (++ means a Ki(cathepsin L)/Ki(calpain) ratio of ≧50),++ (++ means a Ki(cathepsin S)/Ki(calpain) ratio of ≧100)
"COc1ccc(CC(NC(=O)c2cccnc2-n2ccc(-c3cccc(F)c3Cl)n2)C(=O)C(N)=O)cc1 (stereo not drawn) [Example 157, N-(3-Amino-1-{[4-(methyloxy)phenyl]methyl}-2,3-dioxopropyl)-2-[3-(2-chloro-3-fluorophenyl)-1H-pyrazol-1-yl]pyridine-3-carboxamide]",++ (++ means a Ki(cathepsin B)/Ki(calpain) ratio of ≧30),++ (++ means a Ki(cathepsin K)/Ki(calpain) ratio of ≧30),++ (++ means a Ki(cathepsin L)/Ki(calpain) ratio of ≧50),++ (++ means a Ki(cathepsin S)/Ki(calpain) ratio of ≧100)
